Drawing on patent US6630469B2, “5-HT7 receptor antagonists” (Bristol-Myers Squibb Company, priority 2000, dated 2003), this text covers IC50 for 40 compounds.

As a reminder, the IC50 is the concentration that gives 50% inhibition. The low end stands for greater potency in that assay, the high end for weaker potency in that assay.

Each structure is given as a SMILES string. Values joined by “and” are separate entries in the source; they are usually repeats but may differ in a detail not shown here. Equal values may be shown once. A value given as a limit tells only on which side of the number the result lay.

T1 sequence (P34969 whole entry): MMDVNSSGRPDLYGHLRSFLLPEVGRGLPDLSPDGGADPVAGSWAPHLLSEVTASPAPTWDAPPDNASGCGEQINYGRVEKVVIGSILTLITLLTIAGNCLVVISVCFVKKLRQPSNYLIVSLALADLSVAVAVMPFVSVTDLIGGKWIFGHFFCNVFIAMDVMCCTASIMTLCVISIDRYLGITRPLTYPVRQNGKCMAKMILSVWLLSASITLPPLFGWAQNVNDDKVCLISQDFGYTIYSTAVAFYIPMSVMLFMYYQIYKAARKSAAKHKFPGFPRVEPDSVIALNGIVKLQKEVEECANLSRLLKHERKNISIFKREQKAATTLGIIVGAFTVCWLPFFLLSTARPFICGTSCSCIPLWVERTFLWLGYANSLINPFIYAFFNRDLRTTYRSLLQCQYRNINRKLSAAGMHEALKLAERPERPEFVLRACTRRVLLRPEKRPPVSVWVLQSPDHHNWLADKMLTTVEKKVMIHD

This assay addresses T1, human 5-HT7 receptor (Homo sapiens, UniProt P34969).
T1 construct: expressed in transfected cells; host or cells: CHO cells
As to the kind of experiment: 5-HT7 Receptor Binding Assay. The note with it: membranes of CHO cells expressing human 5-HT7 receptor; 1 nM 3H-5-carboxamidotryptamine; 25° C., 60 minutes. The protocol: 5-HT7 Receptor Binding Assay
Membranes are prepared for binding using the human 5-HT7 receptor expressed in CHO cells. Cells are collected and ruptured using a dounce homogenizer. The cells are spun at 18000× g for 10 minutes and the pellet is resuspended in assay buffer, frozen in liquid nitrogen and kept at −80° C. until the day of the assay.
A total of 30 ug protein is used per well. The assay is carried out in 96-deep-well plates. The assay buffer is 50 mM HEPES. The membrane preparation is incubated at 25° C. for 60 minutes with 0.1 nM to 1000 nM test compound and 1 nM ^3H-5-carboxamidotryptamine. 10 uM serotonin is used as blocking agent to determine non-specific binding. The reaction is terminated by the addition of 1 ml of ice cold 5OmM HEPES buffer and rapid filtration through a Brandel Cell Harvester using Whatman GF/B filters. The filter pads are counted in an LKB Trilux liquid scintillation counter. IC50 values are determined using non-linear regression by Exel-fit.
With `CC(Nc1nc(N)nc(NC[C@@H]2C[C@H]2c2ccncc2)n1)c1ccccc1` (mixture of isomers) [(±)-trans-N-(1-Phenyl-ethyl)-N′-(2-pyridin-4-yl-cyclopropylmethyl)-[1,3,5]triazine-2,4,6-triamine], the IC50 was at most 50 nM.

As to `CC(Nc1nc(N)nc(NC[C@@H]2C[C@H]2c2ccccc2F)n1)c1ccccc1` (mixture of isomers) [(±)-trans-N-[2-(2-Fluoro-phenyl)-cyclopropylmethyl]-N′-(1-phenyl-ethyl)-[1,3,5]triazine-2,4,6-triamine], the IC50 is ≤ 100 nM and > 50 nM.

Consider `CC(Nc1nc(N)nc(NC[C@@H]2C[C@H]2c2ccc(F)cc2)n1)c1ccccc1` (mixture of isomers) [(±)-trans-N-[2-(4-Fluoro-phenyl)-cyclopropylmethyl]-N′-(1-phenyl-ethyl)-[1,3,5]triazine-2,4,6-triamine], for which the IC50 was ≤ 100 nM and > 50 nM.

`C[C@H](Nc1nc(N)nc(NC[C@H]2C[C@@H]2c2ccccc2F)n1)c1ccccc1` [(S,S)-trans-N-[2-(2-Fluoro-phenyl)-cyclopropylmethyl]-N′-(1-phenyl-ethyl)-[1,3,5]triazine-2,4,6-triamine] gave an IC50 of at most 50 nM.

On to `C[C@H](Nc1nc(N)nc(NC[C@H]2C[C@@H]2c2ccc(F)cc2)n1)c1ccccc1` [(S,S)-trans-N-[2-(4-Fluoro-phenyl)-cyclopropylmethyl]-N′-(1-phenyl-ethyl)-[1,3,5]triazine-2,4,6-triamine], for which the IC50 was at most 50 nM.

The compound `CC(Nc1ccnc(NCCc2cccnc2)n1)c1ccccc1` (stereo not shown) [Compound 1, N^4-(1-Phenylethyl)-N^2-[2-(3-pyridinyl)ethyl]pyrimidine-2,4-diamine] had an IC50 of 101 to 200 nM.

`c1ccc(CCNc2nccc(NCc3ccco3)n2)cc1` [Compound 2, N^4-(2-Furanylmethyl)-N^2-(2-phenylethyl)pyrimidine-2,4-diamine] came in with an IC50 of 101 to 200 nM.

With `CC(Nc1ccnc(NCCc2c[nH]c3ccc(F)cc23)n1)c1ccccc1` (stereo not shown) [Compound 3], the IC50 was 101 to 200 nM.

For the compound `c1ccc(OCCNc2nccc(NCc3ccco3)n2)cc1` [Compound 4, N^4-(2-Furanylmethyl)-N^2-(2-phenoxyethyl)pyrimidine-2,4-diamine], the IC50 fell in the range of 101 to 200 nM.

`NC(=O)c1cccc(CNc2ccnc(NCCOc3ccccc3)n2)c1` [Compound 6, N^4-[3-(Aminocarbonyl)phenylmethyl]-N^2-(2-phenoxyethyl)pyrimidine-2,4-diamine] came in with an IC50 of 51 to 100 nM.

As for `CC(Nc1nccc(NCCc2c[nH]c3ccccc23)n1)c1ccccc1` (stereo not shown) [Compound 7, N^4-[2-(1H-Indol-3-yl)ethyl]-N^2-(1-phenylethyl)pyrimidine-2,4-diamine], the IC50 is 51 to 100 nM.

Regarding `CC(Nc1ccnc(NCCc2cccc(Br)c2)n1)c1ccccc1` (stereo not shown) [Compound 8, N^2-[2-(3-Bromophenyl)ethyl]-N^4-(1-phenylethyl)pyrimidine-2,4-diamine], the IC50 fell in the range of 51 to 100 nM.

The compound `CC(Nc1ccnc(NCCc2ccc(Br)cc2)n1)c1ccccc1` (stereo not shown) [Compound 9, N^2-[2-(4-Bromophenyl)ethyl]-N^4-(1-phenylethyl)pyrimidine-2,4-diamine] gave an IC50 of 51 to 100 nM.

`CC(Nc1ccnc(NC2Cc3ccccc3C2)n1)c1ccccc1` (stereo not shown) [Compound 10, N^2-(Indan-2-yl)-N4-(1-phenylethyl)pyrimidine-2,4-diamine] returned an IC50 of 51 to 100 nM.

As to `c1ccc(CCNc2nccc(NCc3cccnc3)n2)cc1` [Compound 11, N^2-(2-Phenylethyl)-N^4-(3-pyridinylmethyl)pyrimidine-2,4-diamine], the IC50 fell in the range of 51 to 100 nM.

For the compound `CC(Nc1ccnc(NCCc2ccccn2)n1)c1ccccc1` (stereo not shown) [Compound 12, N^4-(1-Phenylethyl)-N^2-[2-(2-pyridinyl)ethyl]pyrimidine-2,4-diamine], the IC50 lay within 51 to 100 nM.

The compound `C[C@H](Nc1ccnc(NCCOc2ccccc2)n1)c1ccc(Br)cc1` [Compound 13, N^4-[(1S)-1-(4-Bromophenyl)ethyl]-N^2-(2-phenoxyethyl)pyrimidine-2,4-diamine] had an IC50 of at most 50 nM.

The compound `CS(=O)(=O)Nc1cccc(CNc2ccnc(NCCOc3ccccc3)n2)c1` [Compound 14, N^4-{3-[(Methylsulfonyl)amino]phenylmethyl}-N^2-(2-phenoxyethyl)pyrimidine-2,4-diamine] came in with an IC50 of at most 50 nM.

For `c1ccc(OCCNc2nccc(NCc3cccc4ccccc34)n2)cc1` [Compound 16, N^4-(1-Napthalenylmethyl)-N^2-(2-phenoxyethyl)pyrimidine-2,4-diamine], the IC50 was at most 50 nM.

`C[C@H](Nc1ccnc(NCCOc2ccccc2)n1)c1cccc2ccccc12` [Compound 17, N^4-[(1S)-1-(1-Napthalenyl)ethyl]-N^2-(2-phenoxyethyl)pyrimidine-2,4-diamine] displayed an IC50 of at most 50 nM.

`c1ccc(OCCNc2nccc(NCc3cccs3)n2)cc1` [Compound 18, N^2-(2-Phenoxyethyl)-N^4-(2-thienylmethyl)pyrimidine-2,4-diamine] had an IC50 of at most 50 nM.

Consider `c1ccc(OCCNc2nccc(NCc3ccncc3)n2)cc1` [Compound 19, N^2-(2-Phenoxyethyl)-N^4-(4-pyridinylmethyl)pyrimidine-2,4-diamine], for which the IC50 was at most 50 nM.

The compound `c1ccc(OCCNc2nccc(NCc3cccnc3)n2)cc1` [Compound 20, N^2-(2-Phenoxyethyl)-N^4-(3-pyridinylmethyl)pyrimidine-2,4-diamine] yielded an IC50 of at most 50 nM.

In the case of `CC(Nc1ccnc(NCCc2cccc(O)c2)n1)c1ccccc1` (stereo not shown) [Compound 21, N^2-[2-(3-Hydroxyphenyl)ethyl]-N^4-(1-phenylethyl)pyrimidine-2,4-diamine], the IC50 is at most 50 nM.

For the compound `CC(Nc1ccnc(NCCc2cccc(C#N)c2)n1)c1ccccc1` (stereo not shown) [Compound 22, N^2-[2-(3-Cyanophenyl)ethyl]-N^4-(1-phenylethyl)pyrimidine-2,4-diamine], the IC50 is at most 50 nM.

Regarding `CC(Nc1ccnc(NCCC2=CCCCC2)n1)c1ccccc1` (stereo not shown) [Compound 23, N^2-[2-(1-Cyclohexenyl)ethyl]-N^4-(1-phenylethyl)pyrimidine-2,4-diamine], the IC50 was at most 50 nM.

For the compound `C[C@H](Nc1ccnc(NCCc2ccccc2)n1)c1cccc2ccccc12` [Compound 24, N^4-[(1S)-1-(1-Napthalenyl)ethyl]-N^2-(2-phenylethyl)pyrimidine-2,4-diamine], the IC50 is at most 50 nM.

As for `Ic1cccc(CNc2ccnc(NCCc3ccccc3)n2)c1` [Compound 25, N^4-(3-Iodophenylmethyl)-N^2-(2-phenylethyl)pyrimidine-2,4-diamine], the IC50 was at most 50 nM.

`Brc1cccc(CNc2ccnc(NCCc3ccccc3)n2)c1` [Compound 26, N^4-(3-Bromophenylmethyl)-N^2-(2-phenylethyl)pyrimidine-2,4-diamine] had an IC50 of at most 50 nM.

Consider `c1ccc(CCNc2nccc(NCc3cccs3)n2)cc1` [Compound 27, N^2-(2-Phenylethyl)-N^4-(2-thienylmethyl)pyrimidine-2,4-diamine], for which the IC50 is at most 50 nM.

In the case of `CC(Nc1ccnc(NCCn2ccc3ccccc32)n1)c1ccccc1` (stereo not shown) [Compound 28, N^2-[2-(1H-Indol-1-yl)ethyl]-N^4-(1-phenylethyl)pyrimidine-2,4-diamine], the IC50 was at most 50 nM.

`CC(Nc1ccnc(NCCc2cccs2)n1)c1ccccc1` (stereo not shown) [Compound 29, N^4-(1-Phenylethyl)-N^2-[2-(2-thienyl)ethyl]pyrimidine-2,4-diamine] displayed an IC50 of at most 50 nM.

Consider `CC(Nc1ccnc(N(C)CCc2c[nH]c3ccccc23)n1)c1ccccc1` (stereo not shown) [Compound 30, N^2-[2(1H-Indol-3-yl)ethyl]-N^2-(methyl)-N^4-(1-phenylethyl)pyrimidine-2,4-diamine], for which the IC50 was at most 50 nM.

`CC(Nc1ccnc(NCCc2c[nH]c3cc(F)ccc23)n1)c1ccccc1` (stereo not shown) [Compound 31, N^2-[2-(6-Fluoro-1H-indol-3-yl)ethyl]-N^4-(1-phenylethyl)pyrimidine-2,4-diamine] displayed an IC50 of at most 50 nM.

`CC[C@H](Nc1nc(N)nc(NCCc2ccc(Cl)cc2)n1)c1ccccc1` [Compound 32, N^2-[2-(4-Chlorophenyl)ethyl]-N^4-[(1S)-1-phenylpropyl]-1,3,5-triazine-2,4,6-triamine] displayed an IC50 of 101 to 200 nM.

In turn, `CC[C@H](Nc1nc(N)nc(NCCc2ccc(Cl)c(Cl)c2)n1)c1ccccc1` [Compound 33, N^2-[2-(3,4-Dichlorophenyl)ethyl]-N^4-[(1S)-1-phenylpropyl]-1,3,5-triazine-2,4,6-triamine] registered an IC50 of 101 to 200 nM.

`Cc1ccc(CCNc2nc(N)nc(N[C@@H](C)c3ccc(Br)cc3)n2)cc1` [Compound 34, N^2-[(1S)-1-(4-Bromophenyl)ethyl]-N^4-[2-(4-methylphenyl)ethyl]-1,3,5-triazine-2,4,6-triamine] came in with an IC50 of 101 to 200 nM.

For the compound `CC[C@H](Nc1nc(N)nc(NCC(C)c2ccccc2)n1)c1ccccc1` (stereo partly drawn) [Compound 35, N^2-[(1S)-1-Phenylpropyl]-N^4-(2-phenylpropyl)-1,3,5-triazine-2,4,6-triamine], the IC50 is 101 to 200 nM.

`CC[C@H](Nc1nc(N)nc(NCCc2cccc(C(F)(F)F)c2)n1)c1ccccc1` [Compound 36, N^2-[(1S)-1-Phenylpropyl]-N^4-[2-(3-(trifluoromethyl)phenyl)ethyl]-1,3,5-triazine-2,4,6-triamine] yielded an IC50 of 101 to 200 nM.

The compound `CC(CNc1nc(N)nc(N[C@@H](C)c2ccccc2)n1)c1ccccc1` (stereo partly drawn) [Compound 37, N^2-[(1S)-1-Phenylethyl]-N^4-(2-phenylpropyl)-1,3,5-triazine-2,4,6-triamine] registered an IC50 of 101 to 200 nM.
